Measured values taken from patent US10265407B2, “Modular nanodevices for smart adaptable vaccines” (Yale University, priority 2007, dated 2019).

Test system: dendritic cells
Conditions: FCCP incorporated in PLGA-G4 or PLGA-G4-cyclodextrin nanoparticles; FIG. 8
Description: The prepared nanoparticles were tested for their ability to disrupt endosomes. Particles co-encapsulating the OVA peptide or GFP associated with the dendrimer were incubated at a concentration of 50 μg/ml with 1E5 BMDCs for 24 hours. Liposomal disruption was assessed both qualitatively via fluorescence microscopy of GFP in the cytosol or quantitatively by amount of OVA antigen presented via MHC Class I. Antigen presentation on Class I MHC takes place via cytosolic transport and OVA peptide/MHC Class I was detected specifically using the antibody 24D16-PE.

## N#CC(C#N)=NNc1ccc(OC(F)(F)F)cc1 [FCCP, carbonyl cyanide 4-(trifluoromethoxy) phenylhydrazone]
  ability to disrupt endosomes: significantly enhances
